Results published in patent US20090099319A1, “METHOD FOR SOLUBILISING HYDROPHOBIC ACTIVE SUBSTANCES IN AN AQUEOUS MEDIUM” (BASF SE, priority 2006, published 2009).
In brackets after ≈: the same amount, converted by molar mass.

Experiment: physchem
Conditions: water, thermodynamic from solid
Description: The excess solid was separated off by subsequently centrifuging the solutions twice at 15 000 rpm (20 minutes in each case), producing in all instances a clear, saturated solution of active substance. Subsequently the amount of the guest molecules complexed was determined by means of UV-VIS spectra, the reference sample used in each case being the respective aqueous polymer solution with the same concentration and the same preparation (likewise centrifuged). […] For all of the solubilization experiments evaluated in this way, the measurement error was ±5%.

solubility at 18 h: 1.1 µg/mL (≈ 2.63 µM)
SMILES: COCCOC(=O)C1=C(C)NC(C)=C(C(=O)OC(C)C)C1c1cccc([N+](=O)[O-])c1 (stereo not drawn) [nimodipine, 1,4-dihydro-2,6-dimethyl-4-(3′-nitrophenyl)pyridine 3-β-methoxyethyl ester 5-isopropyl ester]
